Each structure is given as a SMILES string.

Seven molecules from patent publication US7776912B2, “Acetals of nepetalic acid and method of preparation” (E.I. du Pont de Nemours and Company, priority 2006, dated 2010) can be followed below.

The subject of this assay is Aedes aegypti mosquitoes. The assay can be described thus: in vitro Gupta box landing assay (insect repellency). The class given is in vivo. The conditions noted are these: 1% (w/v) in IPA, mean of three replicates; for % Mean repellency: 25 μl applied to Baudruche membrane over bovine blood, landings recorded over 20 min, (C−T)/C×100 vs IPA control well; for Mean time to first landing / Mean number of total landings: 25 μl on membrane; for Mean time to first landing: about 250 female Aedes aegypti; for Mean number of total landings: recorded at 2 min intervals over 20 min. On the procedure:
The products of Examples 1-6 were evaluated for the insect repellency against Aedes aegypti mosquitoes in the in vitro Gupta box landing assay. In this method, a chamber contained 5 wells, each covered by a Baudruche (animal intestine) membrane. Each well was filled with bovine blood, containing sodium citrate (to prevent clotting) and ATP (72 mg ATP disodium salt per 26 ml of blood), and heated to 37° C. A volume of 25 μl of isopropyl alcohol(IPA) containing one test specimen, or DEET as a control, was applied to each membrane. The concentrations were all 1% w/v in IPA except where otherwise indicated. The control was a membrane surface treated with a 1% solution of DEET.
After 5 min, approximately 250 4-day-old female Aedes aegypti mosquitoes were introduced into the chamber. The number of mosquitoes probing the membranes for each treatment was recorded at 2 min intervals over 20 min. Each datum represents the mean of three replicate experiments.
C=the total number of landings on the IPA control well, and
T=the total number of landings on the test solution well.
The % mean repellencies at 1% (w/v) are depicted in Table 2 in addition to mean time to first landing, and mean number of total landings for the nepetalic acid acetals of Examples 1-6 and for DEET as a control.

Take `CC(C)OC1OC(=O)[C@H]2[C@H](CC[C@@H]2C)C1C` (stereo partly drawn) [Example 4, (4aR,7S,7aR)-3-isopropoxy-4,7-dimethylhexahydrocyclopenta[c]pyran-1(3H)-one]: the “% Mean repellency” value is 73.20%, the “Mean time to first landing” value is 2.8 min and the “Mean number of total landings” value came out at 30.6.
In the same order, the values of `CCOC1OC(=O)[C@H]2[C@H](CC[C@@H]2C)C1C` (stereo partly drawn) [Example 2, (4aR,7S,7aR)-3-ethoxy-4,7-dimethylhexahydrocyclopenta[c]pyran-1(3H)-one] are 52.40%, 5.2 min and 26.4.
In the same order, the values of `CCCCOC1OC(=O)[C@H]2[C@H](CC[C@@H]2C)C1C` (stereo partly drawn) [Example 5, (4aR,7S,7aR)-3-n-butoxy-4,7-dimethylhexahydrocyclopenta[c]pyran-1(3H)-one] are 17.80%, 2.8 min and 33.8.
As to `CCN(CC)C(=O)c1cccc(C)c1` [DEET, N,N-diethyltoluamide, reference compound], the “% Mean repellency” value turned out to be 68.60%, the “Mean time to first landing” value is 3.5 min and the “Mean number of total landings” value is on record as 17.7.
In the same order, the values of `CCCOC1OC(=O)[C@H]2[C@H](CC[C@@H]2C)C1C` (stereo partly drawn) [Example 3, (4aR,7S,7aR)-3-n-propoxy-4,7-dimethylhexahydrocyclopenta[c]pyran-1(3H)-one] are 89.10%, 11.6 min and 5.2.
In the same order, the values of `CC(C)COC1OC(=O)[C@H]2[C@H](CC[C@@H]2C)C1C` (stereo partly drawn) [Example 6, (4aR,7S,7aR)-3-isobutoxy-4,7-dimethylhexahydrocyclopenta[c]pyran-1(3H)-one] are 20.40%, 2.0 min and 91.6.
In the same order, the values of `COC1OC(=O)[C@H]2[C@H](CC[C@@H]2C)C1C` (stereo partly drawn) [Example 1, (4aR,7S,7aR)-3-methoxy-4,7-dimethylhexahydrocyclopenta[c]pyran-1(3H)-one] are 79.30%, 3.2 min and 12.2.
